Measurements taken from patent US9527807B2, “Sulfonamide derivative and use thereof” (Takeda Pharmaceutical Company Limited, priority 2011, dated 2016).

Molecular target: T1, AMPA receptor (human GluR1 flip/stargazin expressed in CHO-K1 cells) (Homo sapiens, UniProt P42261)
T1 construct: expressed in transfected cells; host or cells: CHO-K1
Assay: AMPA receptor function enhancing activity using calcium influx as index
Assay type: cell-based
Settings: change in fluorescence level in 3 min, 100% = 3 mM glutamic acid + 300 μM cyclothiazide, 0% = 3 mM glutamic acid only
Excerpt: Human GluR1 flip cDNA was amplified by PCR using forward primer […] (SEQ ID NO: 1) and reverse primer […] (SEQ ID NO: 2) artificially synthesized using human brain-derived cDNA (BD Bio science) as a template. The amplified product was digested with restriction enzymes EcoRI, NotI (TAKARA SHUZO CO. LTD.), and incorporated into the same site of pcDNA3.1(+) (Invitrogen) to construct pcDNA3.1(+)/human GluR1 flip gene. Human stargazin cDNA was amplified by PCR using forward primer […] (SEQ ID NO: 3) and reverse primer. […] (SEQ ID NO: 4) artificially synthesized using human hippocampus cDNA as a template. The amplified product was digested with restriction enzymes XhoI, BamHI (TAKARA SHUZO CO. LTD.), and incorporated into the same site of pcDNA3.1(−) (Invitrogen) to construct pcDNA3.1 Zeo(−)/human stargazin gene.
(2) Construction of GluR1 Flip/Stargazin Expressing Cell
CHO-K1 cells passaged in a culture medium (Ham's F12 medium (Invitrogen) added with 10% inactivated fetal bovine serum (Morgate) and penicillin, streptomycin (Invitrogen)) were detached with 0.05% trypsin, 0.53 mM EDTA (Invitrogen) diluted with D-PBS(−). The detached cells were suspended in a culture medium, and recovered by a centrifugation operation at 1,000 rpm. The recovered cells were suspended again in D-PBS(−), and added to a 0.4 cm electroporation cuvette (BioRad). pcDNA3.1(+)/human GluR1 flip gene (5 μg) and pcDNA3.1 Zeo(−)/human stargazin gene (15 μg) were added, and the mixture was introduced into CHO-K1 cells using Gene Pulser II (BioRad) under the conditions of 950 μFd, […]. The introduced cells were cultured overnight in a culture medium and, the next day, plated in a 96 well plate at 250 cells/well using a selection medium (culture medium added with Zeocin (Invitrogen) to 250 μg/mL). Clones showing drug resistance were selected, and GluR1 flip/stargazin expressing clones were selected by an assay method using calcium influx as an index as shown below.
(3) Measurement Method of AMPA Receptor Function Enhancing Activity of Compound Using Calcium Influx as Index
CHO-K1/GluR1 flip/stargazin expressing cells were plated on a 384 well black transparent bottom plate (FMAT4307723) at 0.5×10^4 cells/well, and cultured in a 37° C., CO2 incubator (SANYO Electric Co., Ltd.) for 2 days. The medium in the cell plate was removed, and a calcium indicator (Calcium 4 Assay Kit, Molecular. Devices) containing 1.25 mM probenecid (Invitrogen) was added at 25 μL/well and the well was left standing in 37° C., CO2 incubator for 1 hr. The cell plate was set in FLITRtetra (Molecular Devices), a mixture (12.5 μL) of 9 mM glutamic acid diluted with assay buffer B (HBSS (Invitrogen), 0.1% BSA, 10 mM HEPES) and a test compound was added, and the amount of change in fluorescence level in 3 min was measured. In the definition here, the amount of change in fluorescence level of well added with glutamic acid at final concentration 3 mM and 300 μM cyclothiazide (TOCRIS) is 100%, the amount of change in fluorescence level of well added only with glutamic acid at final concentration 3 mM is 0%, and the compound activity was calculated according to the following formula. activity (%)=(X−C)/(T−C)×100 T: amount of change in fluorescence level of well added with glutamic acid at final concentration 3 mM and 300 μM cyclothiazide C: amount of change in fluorescence level of well added only with glutamic acid at final concentration 3 mM X: amount of change in fluorescence level of well added with to test compound

T1 sequence (P42261 19-906 isoform P42261-2 limits assumed): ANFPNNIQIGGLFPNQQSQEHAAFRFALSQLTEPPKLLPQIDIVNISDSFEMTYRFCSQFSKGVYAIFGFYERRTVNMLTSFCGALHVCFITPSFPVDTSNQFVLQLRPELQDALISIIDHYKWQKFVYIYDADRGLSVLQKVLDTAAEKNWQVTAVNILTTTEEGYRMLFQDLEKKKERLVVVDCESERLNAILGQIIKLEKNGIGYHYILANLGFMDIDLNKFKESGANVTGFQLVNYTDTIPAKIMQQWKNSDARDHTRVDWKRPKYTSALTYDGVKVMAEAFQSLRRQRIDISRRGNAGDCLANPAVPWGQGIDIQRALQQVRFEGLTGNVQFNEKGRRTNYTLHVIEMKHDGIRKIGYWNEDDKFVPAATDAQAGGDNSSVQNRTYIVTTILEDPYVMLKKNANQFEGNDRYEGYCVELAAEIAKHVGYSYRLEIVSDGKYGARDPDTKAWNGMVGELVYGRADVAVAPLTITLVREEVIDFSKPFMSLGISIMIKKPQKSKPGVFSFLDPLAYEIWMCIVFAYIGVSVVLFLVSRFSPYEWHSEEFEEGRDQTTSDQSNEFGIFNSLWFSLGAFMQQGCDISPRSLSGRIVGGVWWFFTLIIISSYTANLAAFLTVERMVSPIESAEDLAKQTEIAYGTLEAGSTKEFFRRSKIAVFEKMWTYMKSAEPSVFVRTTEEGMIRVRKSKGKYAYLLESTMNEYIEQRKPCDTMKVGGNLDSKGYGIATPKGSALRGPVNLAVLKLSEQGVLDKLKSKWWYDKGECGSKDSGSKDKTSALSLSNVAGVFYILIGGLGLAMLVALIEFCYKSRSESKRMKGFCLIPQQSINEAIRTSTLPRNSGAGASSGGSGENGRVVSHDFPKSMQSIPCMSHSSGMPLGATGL
T1 sequence (Q9Y698 whole entry partner): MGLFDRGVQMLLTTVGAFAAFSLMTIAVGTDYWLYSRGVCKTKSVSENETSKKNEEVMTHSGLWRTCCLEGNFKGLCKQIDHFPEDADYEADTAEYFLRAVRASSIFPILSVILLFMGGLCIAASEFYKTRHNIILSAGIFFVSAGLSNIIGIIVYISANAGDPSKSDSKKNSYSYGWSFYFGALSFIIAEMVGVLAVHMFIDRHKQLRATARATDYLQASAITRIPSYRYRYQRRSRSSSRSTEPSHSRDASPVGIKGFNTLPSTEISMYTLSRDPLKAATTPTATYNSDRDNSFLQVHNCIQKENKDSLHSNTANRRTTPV

Compound | activity (%)
CS(=O)(=O)N[C@H]1CCCO[C@@H]1COc1ccc(C2CC2)cc1 (racemic) [Example 5, 1,5-anhydro-6-O-(4-cyclopropylphenyl)-2,3,4-trideoxy-4-[(methylsulfonyl)amino]-DL-erythrohexitol] | 78
CCS(=O)(=O)N[C@H]1CCN(C(C)=O)C[C@@H]1COc1ccc(CCC#N)cc1 (relative stereo) [Example 2, trans-N-[1-acetyl-3-{[4-(2-cyanoethyl)phenoxy]methyl}piperidin-4-yl]ethanesulfonamide] | 38
CCS(=O)(=O)N[C@H]1CCOC[C@@H]1COc1ccc(-n2cc(Cl)cn2)cc1 (relative stereo) [Example 140, trans-N-[3-{[4-(4-chloro-1H-pyrazol-1-yl)phenoxy]methyl}tetrahydro-2H-pyran-4-yl]ethanesulfonamide] | 90
CS(=O)(=O)N[C@H]1COCC[C@@H]1COc1ccc(-n2cc(Cl)cn2)cc1F [Example 207, N-[(3R,4S)-4-{[4-(4-chloro-1H-pyrazol-1-yl)-2-fluorophenoxy]methyl}tetrahydro-2H-pyran-3-yl]methanesulfonamide] | 74
O=S(=O)(N[C@@H]1CCCC[C@H]1COc1ccc(C2CC2)cc1)C1CC1 (relative stereo) [Example 12, trans-N-[2-[(4-cyclopropylphenoxy)methyl]cyclohexyl]cyclopropanesulfonamide] | 72
CCS(=O)(=O)N[C@H]1CCOC[C@@H]1COc1ccc(C(C)=O)c(F)c1 (relative stereo) [Example 131, trans-N-{3-[(4-acetyl-3-fluorophenoxy)methyl]tetrahydro-2H-pyran-4-yl}ethanesulfonamide] | 89
CCS(=O)(=O)N[C@H]1CCOC[C@@H]1COc1ccc(-n2nccc2C)cc1 (racemic) [Example 431, N-[(3RS,4SR)-3-{[4-(5-methyl-1H-pyrazol-1-yl)phenoxy]methyl}tetrahydro-2H-pyran-4-yl]ethanesulfonamide] | 66
CS(=O)(=O)N[C@H]1CCC(F)(F)C[C@@H]1COc1ccc(-c2ccc(C#N)cn2)cc1 [Example 268, N-[(1S,2S)-2-{[4-(5-cyanopyridin-2-yl)phenoxy]methyl}-4,4-difluorocyclohexyl]methanesulfonamide] | 101
CCS(=O)(=O)N[C@H]1CCC(F)(F)C[C@@H]1COc1ccc(N2CCCC2=O)cc1 [Example 482, N-[(1S,2S)-4,4-difluoro-2-{[4-(2-oxopyrrolidin-1-yl)phenoxy]methyl}cyclohexyl] ethanesulfonamide] | 99
CCS(=O)(=O)N[C@H]1CCC(F)(F)C[C@@H]1COc1ccc(-n2cc(C)cn2)cc1 (relative stereo) [Example 141, trans-N-[4,4-difluoro-2-{[4-(4-methyl-1H-pyrazol-1-yl)phenoxy]methyl}cyclohexyl]ethanesulfonamide] | 78
CS(=O)(=O)N[C@H]1COCC[C@@H]1COc1ccc(-c2ncc(F)cn2)cc1 [Example 283, N-[(3R,4S)-4-{[4-(5-fluoropyrimidin-2-yl)phenoxy]methyl}tetrahydro-2H-pyran-3-yl]methanesulfonamide] | 98
O=S(=O)(N[C@H]1CCOC[C@@H]1COc1ccc(-n2cc(Cl)cn2)cc1)C1CC1 [Example 277, N-[(3R,4S)-3-{[4-(4-chloro-1H-pyrazol-1-yl)phenoxy]methyl}tetrahydro-2H-pyran-4-yl]cyclopropanesulfonamide] | 90
CCS(=O)(=O)N[C@H]1CCCC[C@@H]1COc1ccc(C(C)C)cc1 [Example 13, N-[(1S,2S)-2-{[4-(1-methylethyl)phenoxy]methyl}cyclohexyl]ethanesulfonamide] | 81
CS(=O)(=O)N[C@H]1COCC[C@@H]1COc1ccc(-c2ccc(Cl)cn2)cc1 [Example 205, N-[(3R,4S)-4-{[4-(5-chloropyridin-2-yl)phenoxy]methyl}tetrahydro-2H-pyran-3-yl]methanesulfonamide] | 65
CS(=O)(=O)N[C@H]1CCC(F)(F)C[C@@H]1COc1ccc(-c2ccc(C#N)cn2)cc1 (racemic) [Example 260, N-[(1SR,2SR)-2-{[4-(5-cyanopyridin-2-yl)phenoxy]methyl}-4,4-difluorocyclohexyl]methanesulfonamide] | 82
CS(=O)(=O)N[C@H]1CCOC[C@@H]1COc1ccc(-n2cc(Cl)cn2)cc1 [Example 269, N-[(3R,4S)-3-{[4-(4-chloro-1H-pyrazol-1-yl)phenoxy]methyl}tetrahydro-2H-pyran-4-yl]methanesulfonamide] | 93
O=S(=O)(N[C@H]1COCC[C@@H]1COc1ccc(-c2ncc(Cl)cc2F)cc1)C1CC1 [Example 383, N-[(3R,4S)-4-{[4-(5-chloro-3-fluoropyridin-2-yl)phenoxy]methyl}tetrahydro-2H-pyran-3-yl]cyclopropanesulfonamide] | 60
CCS(=O)(=O)N[C@H]1CCOC[C@@H]1COc1ccc(-c2ncc(Cl)s2)cc1 (racemic) [Example 261, N-[(3RS,4SR)-3-{[4-(5-chloro-1,3-thiazol-2-yl)phenoxy]methyl}tetrahydro-2H-pyran-4-yl]ethanesulfonamide] | 92
CCS(=O)(=O)N[C@H]1CCOC[C@@H]1COc1ccc(-n2cccn2)cc1 (single isomer, unassigned) [Example 6, trans-N-[3-{[4-(1H-pyrazol-1-yl)phenoxy]methyl}tetrahydro-2H-pyran-4-yl]ethanesulfonamide] | 82
CCS(=O)(=O)N[C@H]1CCCO[C@@H]1COc1ccc(C2CC2)cc1 (racemic) [Example 4, 1,5-anhydro-6-O-(4-cyclopropylphenyl)-2,3,4-trideoxy-4-[(ethylsulfonyl)amino]-DL-erythrohexitol] | 86
CCS(=O)(=O)N[C@H]1CCC(F)(F)C[C@@H]1COc1ccc(-n2cccn2)cc1 (relative stereo) [Example 130, trans-N-[4,4-difluoro-2-{[4-(1H-pyrazol-1-yl)phenoxy]methyl}cyclohexyl]ethanesulfonamide] | 90
CCS(=O)(=O)N[C@H]1CCSC[C@@H]1COc1ccc(C2CCOCC2)cc1 [Example 529, N-((3S,4S)-3-((4-(tetrahydro-2H-pyran-4-yl)phenoxy)methyl)tetrahydro-2H-thiopyran-4-yl)ethanesulfonamide] | 89
CCS(=O)(=O)N[C@H]1CCOC[C@@H]1COc1ccc(-c2ccccn2)cc1 (relative stereo) [Example 137, trans-N-{3-[(4-pyridin-2-ylphenoxy)methyl]tetrahydro-2H-pyran-4-yl}ethanesulfonamide] | 91
CCS(=O)(=O)N[C@H]1CCC(F)(F)C[C@@H]1COc1ccc(-n2nccc2C)cc1 (relative stereo) [Example 143, trans-N-[4,4-difluoro-2-{[4-(5-methyl-1H-pyrazol-1-yl)phenoxy]methyl}cyclohexyl]ethanesulfonamide] | 42
CCS(=O)(=O)N[C@H]1CCOC[C@@H]1COc1ccc(-c2cccnc2)cc1 (relative stereo) [Example 138, trans-N-{3-[(4-pyridin-3-ylphenoxy)methyl]tetrahydro-2H-pyran-4-yl}ethanesulfonamide] | 95
CCS(=O)(=O)N[C@H]1CCCO[C@@H]1COc1ccc(-c2ncc(C)s2)cc1 (racemic) [Example 181, 1,5-anhydro-2,3,4-trideoxy-4-[(ethylsulfonyl)amino]-6-O-[4-(5-methyl-1,3-thiazol-2-yl)phenyl]-DL-erythro-hexitol] | 77
